Test results published in ChEMBL document CHEMBL4507268 (2021).

Columns and labels:
Conditions in all cases: Compound concentration 1000.0 nM
[1] = target: Mitogen-activated protein kinase 4 (Homo sapiens) (UniProt P31152)
[2] = target: T1, Aurora kinase C (Homo sapiens) (UniProt Q9UQB9)
T1 sequence (whole entry): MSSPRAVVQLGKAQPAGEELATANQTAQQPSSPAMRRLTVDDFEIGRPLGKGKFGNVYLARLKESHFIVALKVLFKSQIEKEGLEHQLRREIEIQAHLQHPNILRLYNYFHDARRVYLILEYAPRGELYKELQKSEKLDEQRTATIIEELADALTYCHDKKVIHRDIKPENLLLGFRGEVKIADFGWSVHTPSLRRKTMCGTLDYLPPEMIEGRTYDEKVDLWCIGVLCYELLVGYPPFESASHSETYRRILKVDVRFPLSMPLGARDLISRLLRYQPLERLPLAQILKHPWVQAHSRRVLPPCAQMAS

[3] = target: Tyrosine-protein kinase BTK (Homo sapiens) (UniProt Q06187)
[4] = target: T2, Serine/threonine-protein kinase MAK (Homo sapiens) (UniProt P20794)
T2 sequence (whole entry): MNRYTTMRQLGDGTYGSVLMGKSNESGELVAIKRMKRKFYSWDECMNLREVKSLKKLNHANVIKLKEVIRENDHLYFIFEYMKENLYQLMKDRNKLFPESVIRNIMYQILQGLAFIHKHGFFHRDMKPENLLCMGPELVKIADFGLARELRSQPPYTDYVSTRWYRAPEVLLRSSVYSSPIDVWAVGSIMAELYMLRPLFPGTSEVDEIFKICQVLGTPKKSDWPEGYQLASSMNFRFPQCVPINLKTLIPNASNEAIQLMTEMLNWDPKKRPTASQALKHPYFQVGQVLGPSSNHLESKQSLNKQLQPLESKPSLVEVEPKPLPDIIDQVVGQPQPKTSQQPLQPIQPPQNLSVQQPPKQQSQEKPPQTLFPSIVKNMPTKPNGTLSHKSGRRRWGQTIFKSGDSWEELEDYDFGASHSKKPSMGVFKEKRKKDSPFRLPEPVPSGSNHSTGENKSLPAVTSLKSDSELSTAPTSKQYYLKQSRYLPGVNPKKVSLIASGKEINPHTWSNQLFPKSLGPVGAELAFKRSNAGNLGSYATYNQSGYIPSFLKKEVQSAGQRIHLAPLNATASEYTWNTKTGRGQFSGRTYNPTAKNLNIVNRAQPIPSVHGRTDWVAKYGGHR

[5] = target: Casein kinase I isoform gamma-1 (Homo sapiens) (UniProt Q9HCP0)
[6] = test system: Proto-oncogene tyrosine-protein kinase receptor Ret (Homo sapiens), P07949 [M918T]
[7] = target: T3, Phosphatidylinositol 3-kinase C2 domain-containing subunit gamma (Homo sapiens) (UniProt O75747)
T3 sequence (whole entry): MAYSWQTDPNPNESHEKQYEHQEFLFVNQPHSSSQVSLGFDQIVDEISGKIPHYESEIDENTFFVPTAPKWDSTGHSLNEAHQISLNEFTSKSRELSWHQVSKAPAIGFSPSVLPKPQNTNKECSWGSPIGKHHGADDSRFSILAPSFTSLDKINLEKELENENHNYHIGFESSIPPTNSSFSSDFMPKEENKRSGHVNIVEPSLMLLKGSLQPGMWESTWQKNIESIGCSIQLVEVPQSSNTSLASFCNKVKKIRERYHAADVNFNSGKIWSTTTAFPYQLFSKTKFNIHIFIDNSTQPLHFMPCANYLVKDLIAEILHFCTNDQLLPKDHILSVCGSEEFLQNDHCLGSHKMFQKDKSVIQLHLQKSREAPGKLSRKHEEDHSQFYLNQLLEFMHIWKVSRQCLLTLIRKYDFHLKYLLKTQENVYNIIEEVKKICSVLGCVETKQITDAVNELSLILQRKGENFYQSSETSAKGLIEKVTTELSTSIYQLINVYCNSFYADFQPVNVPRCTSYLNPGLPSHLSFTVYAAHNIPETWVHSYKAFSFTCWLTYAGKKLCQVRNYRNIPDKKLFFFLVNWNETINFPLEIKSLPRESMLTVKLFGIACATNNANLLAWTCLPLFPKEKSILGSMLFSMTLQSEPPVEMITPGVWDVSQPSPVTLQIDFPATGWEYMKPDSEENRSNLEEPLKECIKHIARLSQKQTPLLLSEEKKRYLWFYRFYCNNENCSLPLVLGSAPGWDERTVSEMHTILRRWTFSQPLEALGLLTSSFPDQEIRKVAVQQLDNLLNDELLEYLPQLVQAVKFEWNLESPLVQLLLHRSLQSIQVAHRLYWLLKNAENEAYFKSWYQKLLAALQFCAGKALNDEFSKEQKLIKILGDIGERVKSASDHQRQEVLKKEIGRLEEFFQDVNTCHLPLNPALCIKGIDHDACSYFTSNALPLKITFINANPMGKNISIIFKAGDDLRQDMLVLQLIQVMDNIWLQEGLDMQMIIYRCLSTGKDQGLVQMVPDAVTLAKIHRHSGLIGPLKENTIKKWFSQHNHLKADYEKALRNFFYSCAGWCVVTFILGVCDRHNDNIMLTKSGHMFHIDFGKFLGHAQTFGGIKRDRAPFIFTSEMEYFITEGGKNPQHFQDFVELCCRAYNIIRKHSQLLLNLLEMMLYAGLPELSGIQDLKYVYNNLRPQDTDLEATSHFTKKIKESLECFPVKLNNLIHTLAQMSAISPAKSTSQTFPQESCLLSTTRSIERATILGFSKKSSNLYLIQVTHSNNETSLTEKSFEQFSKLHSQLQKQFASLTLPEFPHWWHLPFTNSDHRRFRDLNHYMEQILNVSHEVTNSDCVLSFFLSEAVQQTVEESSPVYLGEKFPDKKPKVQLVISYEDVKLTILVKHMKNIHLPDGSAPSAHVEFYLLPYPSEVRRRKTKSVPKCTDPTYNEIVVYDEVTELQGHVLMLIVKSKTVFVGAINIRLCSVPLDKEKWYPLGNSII

[8] = target: T4, Dual specificity mitogen-activated protein kinase kinase 6 (Homo sapiens) (UniProt P52564)
T4 sequence (whole entry): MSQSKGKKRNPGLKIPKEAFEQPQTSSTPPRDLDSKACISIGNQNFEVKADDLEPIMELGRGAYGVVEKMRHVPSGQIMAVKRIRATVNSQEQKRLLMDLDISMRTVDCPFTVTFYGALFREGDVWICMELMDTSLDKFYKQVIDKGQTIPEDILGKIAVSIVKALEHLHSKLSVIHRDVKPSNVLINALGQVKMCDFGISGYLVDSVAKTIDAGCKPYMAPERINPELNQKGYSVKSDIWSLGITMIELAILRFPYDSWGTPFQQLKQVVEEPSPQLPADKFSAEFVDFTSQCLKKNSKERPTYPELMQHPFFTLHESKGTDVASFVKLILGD

Measured: residual activity

Chain of Proto-oncogene tyrosine-protein kinase receptor Ret (Homo sapiens), P07949 [M918T] (P07949 whole entry M918T, the tested form may be a part): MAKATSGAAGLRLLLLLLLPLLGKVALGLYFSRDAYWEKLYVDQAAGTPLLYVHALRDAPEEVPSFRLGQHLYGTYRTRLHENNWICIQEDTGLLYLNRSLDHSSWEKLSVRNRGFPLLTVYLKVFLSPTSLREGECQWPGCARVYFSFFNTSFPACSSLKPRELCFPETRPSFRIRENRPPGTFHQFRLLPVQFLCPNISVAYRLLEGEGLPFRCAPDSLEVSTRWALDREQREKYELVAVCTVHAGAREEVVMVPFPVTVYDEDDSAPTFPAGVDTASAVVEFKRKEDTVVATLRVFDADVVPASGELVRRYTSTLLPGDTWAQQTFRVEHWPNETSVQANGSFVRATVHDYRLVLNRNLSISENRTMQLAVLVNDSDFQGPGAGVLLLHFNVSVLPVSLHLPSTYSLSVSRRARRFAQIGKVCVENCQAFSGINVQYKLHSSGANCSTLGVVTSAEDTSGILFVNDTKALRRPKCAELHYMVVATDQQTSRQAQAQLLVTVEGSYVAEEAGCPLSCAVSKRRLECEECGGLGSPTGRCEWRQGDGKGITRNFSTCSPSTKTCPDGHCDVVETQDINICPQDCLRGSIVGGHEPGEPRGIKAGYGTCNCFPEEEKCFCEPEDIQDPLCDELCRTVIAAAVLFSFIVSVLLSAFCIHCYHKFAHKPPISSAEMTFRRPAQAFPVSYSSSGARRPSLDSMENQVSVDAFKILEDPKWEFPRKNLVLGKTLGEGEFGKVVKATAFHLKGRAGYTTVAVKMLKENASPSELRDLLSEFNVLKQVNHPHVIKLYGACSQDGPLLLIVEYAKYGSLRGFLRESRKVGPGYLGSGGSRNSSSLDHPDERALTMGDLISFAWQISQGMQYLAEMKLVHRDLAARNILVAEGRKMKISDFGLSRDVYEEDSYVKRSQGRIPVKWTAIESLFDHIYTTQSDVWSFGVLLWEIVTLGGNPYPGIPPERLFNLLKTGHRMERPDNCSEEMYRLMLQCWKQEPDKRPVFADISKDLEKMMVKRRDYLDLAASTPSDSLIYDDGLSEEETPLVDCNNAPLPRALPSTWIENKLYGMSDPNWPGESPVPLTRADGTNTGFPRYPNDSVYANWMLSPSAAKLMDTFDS
Chain of Tyrosine-protein kinase BTK (Homo sapiens) (Q06187 whole entry): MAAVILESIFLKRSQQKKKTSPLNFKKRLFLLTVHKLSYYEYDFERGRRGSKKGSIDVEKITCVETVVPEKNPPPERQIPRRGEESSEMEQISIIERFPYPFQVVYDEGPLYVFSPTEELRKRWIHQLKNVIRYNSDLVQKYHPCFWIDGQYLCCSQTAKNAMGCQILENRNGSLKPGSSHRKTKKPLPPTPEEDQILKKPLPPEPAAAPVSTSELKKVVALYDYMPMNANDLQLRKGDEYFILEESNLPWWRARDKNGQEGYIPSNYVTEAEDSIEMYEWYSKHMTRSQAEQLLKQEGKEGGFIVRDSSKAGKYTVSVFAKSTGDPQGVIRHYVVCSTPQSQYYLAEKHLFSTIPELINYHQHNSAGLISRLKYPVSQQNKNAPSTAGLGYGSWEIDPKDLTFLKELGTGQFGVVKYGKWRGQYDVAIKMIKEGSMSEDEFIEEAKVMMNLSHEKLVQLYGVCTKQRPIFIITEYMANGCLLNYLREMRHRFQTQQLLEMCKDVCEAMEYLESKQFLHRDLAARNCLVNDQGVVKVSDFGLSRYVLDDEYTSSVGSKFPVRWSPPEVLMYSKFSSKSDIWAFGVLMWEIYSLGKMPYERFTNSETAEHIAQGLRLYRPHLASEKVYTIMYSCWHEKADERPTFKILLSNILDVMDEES
Chain of Casein kinase I isoform gamma-1 (Homo sapiens) (Q9HCP0 whole entry, looked up, canonical isoform): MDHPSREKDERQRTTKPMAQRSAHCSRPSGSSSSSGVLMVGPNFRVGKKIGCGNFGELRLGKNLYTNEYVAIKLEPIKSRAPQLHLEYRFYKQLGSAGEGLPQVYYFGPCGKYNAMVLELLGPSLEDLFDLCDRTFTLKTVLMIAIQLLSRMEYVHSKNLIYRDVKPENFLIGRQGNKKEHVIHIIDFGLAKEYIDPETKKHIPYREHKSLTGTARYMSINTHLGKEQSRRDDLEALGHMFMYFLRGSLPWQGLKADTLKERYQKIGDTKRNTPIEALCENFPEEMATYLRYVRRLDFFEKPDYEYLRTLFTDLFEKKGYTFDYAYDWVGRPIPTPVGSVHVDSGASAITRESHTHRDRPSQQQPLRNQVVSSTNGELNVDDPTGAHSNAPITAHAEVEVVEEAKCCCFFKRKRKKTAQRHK
Chain of Mitogen-activated protein kinase 4 (Homo sapiens) (P31152 whole entry): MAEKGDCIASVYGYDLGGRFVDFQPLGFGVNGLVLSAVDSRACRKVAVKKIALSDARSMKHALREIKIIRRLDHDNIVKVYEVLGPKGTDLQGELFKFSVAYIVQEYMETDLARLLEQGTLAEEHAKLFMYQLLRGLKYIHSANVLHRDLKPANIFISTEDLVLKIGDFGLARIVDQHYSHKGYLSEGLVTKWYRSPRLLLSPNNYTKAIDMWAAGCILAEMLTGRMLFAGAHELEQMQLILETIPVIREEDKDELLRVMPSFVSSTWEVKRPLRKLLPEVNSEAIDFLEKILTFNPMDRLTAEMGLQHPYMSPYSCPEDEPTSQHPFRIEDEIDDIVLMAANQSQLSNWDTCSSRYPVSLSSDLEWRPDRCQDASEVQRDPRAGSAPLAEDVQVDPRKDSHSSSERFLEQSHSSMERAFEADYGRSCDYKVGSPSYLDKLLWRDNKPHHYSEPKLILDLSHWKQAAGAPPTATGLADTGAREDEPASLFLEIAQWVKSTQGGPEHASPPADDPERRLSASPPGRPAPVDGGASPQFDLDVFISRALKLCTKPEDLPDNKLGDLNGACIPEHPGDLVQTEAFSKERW

Cc1nc(C2CCN(C(=O)c3ccc(OC(F)(F)F)cc3N)CC2)c2ncc(N3CCN(C)CC3)cc2n1 [BAY-693]
inactive: [1] 91% | [2] 100% | [3] 87% | [4] 99% | [5] 100% | [6] 86% | [7] 100% | [8] 97%

CN1CCN(c2cnc3c(C4CCN(C(=O)c5ccc(OC(F)(F)F)cc5N)CC4)ncnc3c2)CC1 [BAY-885]
inactive: [1] 100% | [2] 67% | [3] 100% | [4] 100% | [5] 100% | [6] 100% | [7] 100% | [8] 88%
